# According to patent US20160184274A1, “Methods for inhibiting mesenchymal phenotype after epithelial-to-mesenchymal transition” (Fibrostatin, S.L., priority 2014, published 2016):
# System: 4T1 cells
# Assay: Cell death / caspase 3 activation in 4T1 cells
# Assay type: cell-based, Mouse
# Conditions: same T12 concentrations as for circulating 4T1 cells; FIG. 11D-E
# Description: FIG. 11. T12 targets circulating 4T1 cancer cells. A, Balb/c female mice were inoculated with 4T1 mouse breast cancer cells at mammary fat pads. At day 20 after cell inoculation mice were subjected to PET analysis for metastases detection. White arrows denote metastatic foci at the spinal cord. B, Balb/c female from A were either left untreated (Control), or were treated with T12 in drinking water from day 20. At day 35 blood was seeded in the presence of 6-thioguanine and circulating 4T1 cells selected and further cultured. Shown are phase contrast images of the resulting cultures acquired with an inverted microscope. […] C, circulating 4T1 cells recovered as in B and 4T1 cells were cultured in standard 2D cultures and subjected to RNA extraction, and RNA samples were analyzed by RT-qPCR. Shown are the relative quantities (RQ) of the indicated mRNAs of circulating 4T1 cells using levels from 4T1 cells as reference. […] Dead cells in culture media were quantified by measuring cell size using an automated cell counter (Moxi Z, Orflo). […] E, circulating 4T1 cells recovered as in B or 4T1 cells were cultured in ultra-low binding plates and treated with the indicated concentrations of T12 for 9 days, cells were lysed and analyzed by Western blot using antibodies specific for activated caspase 3. The levels of GAPDH were determined for loading control purposes. […]
compound,measurement,value
"COc1ccc(-c2ccc(-c3cccc(C)c3)c(C)c2)c(CCC(=O)O)c1 [T12, 3-[4″-methoxy-3,2′-dimethyl-(1,1′;4′,1″)terphenyl-2″-yl] propionic acid]",sensitivity to T12: dead cells and activated caspase 3,little effect on 4T1 cells
